Read-outs that look alike come from different tables or passages of the source.
Experiments:
Type in all cases: in vivo, male Carworth Farms No. 1 (CF1) mice
[1] = system: pentylenetetrazol seizures; assay: subcutaneous pentylenetetrazol (scMet) test, Phase I, mice ip; details: Mus musculus, mice ip
Protocol: (§1) Initial evaluations for anticonvulsant activity include phases I, VIA and VIB test procedures. These tests are performed intraperitoneally in male Carworth Farms No. 1 (CF1) mice, weighing 18-25 g (Phase I) or orally in male Sprague-Dawley rats, weighing 100-150 g (Phases VIA and VIB). The evaluation is based on three tests: maximal electroshock (MES), subcutaneous (scMet), and the rotorod test for neurological toxicity (Tox). (a) Anticonvulsant Screening Project, Antiepileptic Drug Development Program, National Institutes of Health, DHEW Publ (NIH)(U.S.) 1978, NIH 78-1093. (b) Porter, R. J.; Cereghino, J. J.; Gladding, G. D.; Hessie, B. J.; Kupferberg, H. J.; Scoville, B.; White, B. G. Antiepileptic drug development program. Cleveland Clin. Q. 1984, 51, 293-305. (c) Krall, R. L.; Penry, J. K.; White, B. G.; Kupferberg, H. J.; Swinyard, E. A. Antiepileptic drug development: II. Anticonvulsant drug screening. Epilepsia 1978, 19, 400-428. In the MES test, maximal electroshock seizures are elicited with a 60- cycle alternating current of 50 mA intensity (5-7 times that necessary to elicit minimal electroshock seizures) delivered via corneal electrodes for 0.2 seconds. A drop of 0.9% saline is placed on the eye prior to application of the electrodes in order to […]. Abolition of the hind limb tonic extension component of the seizure is defined as protection and results are expressed as the number of animals protected/the number of animals tested.
In the sc MET test, eighty-five mg/kg of pentylenetetrazol, which induces seizures in more than 95% of mice, is administered as a 0.5% solution subcutaneously in the posterior midline. The animal is observed for 30 minutes. Failure to observe even a threshold seizure (a single episode of clonic spasms of at least 5 seconds duration) is defined as protection and the results are expressed as the number of animals protected/ the number of animals tested. […]

[2] = system: maximal electroshock seizures; assay: maximal electroshock (MES) test, Phase I, mice ip; details: for responders at 30 mg/kg / responders at 100 mg/kg / responders at 300 mg/kg / responders at 10 mg/kg: Mus musculus
Protocol: as §1
In phase I, compounds are suspended in 0.5% aqueous methylcellulose and are administered intraperitoneally at three dosage levels (30, 100, and 300 mg/kg) with anticonvulsant activity and motor impairment noted 30 min and 4 h (and in some cases 2 h and 6 h) after administration.

neurotoxicity (rotorod) = assay: rotorod test for neurological toxicity (Tox), Phase I, mice ip
Protocol: as §1
The rotorod test is used to evaluate neurotoxicity. The animal is placed on a 1 inch diameter knurled plastic rod rotating at 6 rpm. Normal mice can remain on a rod rotating at this speed indefinitely. […]

[3] = 0.5 h, 30 min, read-out: scMet 30 min
[4] = 0.5 h, 30 min, read-out: scMet 30 min (converted)
[5] = 100 mg/kg, 4 h, read-out: MES 4 h (converted)
[6] = 4 h, read-out: MES 4 h (converted)
[7] = 0.5 h, 30 min, read-out: MES 30 min (converted)
[8] = 0.5 h, 100 mg/kg, 30 min, read-out: MES 30 min (converted)
[9] = 4 h, read-out: scMet 4 h (converted)

SMILES | responders at 30 mg/kg [1, 3] [%] | responders at 100 mg/kg [1, 3] [%] | responders at 300 mg/kg [1, 4] [%] | responders at 30 mg/kg ([1]; 4 h, read-out: scMet 4 h) [%] | responders at 100 mg/kg ([1]; 4 h, read-out: scMet 4 h) [%] | responders at 30 mg/kg ([2]; 4 h, read-out: MES 4 h) [%] | responders at 100 mg/kg [2, 5] [%] | responders at 300 mg/kg [2, 6] [%] | responders at 30 mg/kg [2, 7] [%] | responders at 100 mg/kg [2, 8] [%] | responders at 300 mg/kg [2, 7] [%] | Tox 30 min (neurotoxicity (rotorod); 30 mg/kg) | Tox 4 h (neurotoxicity (rotorod); 30 mg/kg) | Tox 30 min (neurotoxicity (rotorod); 100 mg/kg) | Tox 4 h (neurotoxicity (rotorod); 100 mg/kg) | Tox 30 min (neurotoxicity (rotorod); 300 mg/kg) | Tox 4 h (neurotoxicity (rotorod); 300 mg/kg) | responders at 300 mg/kg [1, 9] [%] | also measured
COC(=O)[C@@H]1C(=O)C2=C(C[C@H]1C)Nc1ccc(C)cc1S2 (relative stereo) [Compound 4h] | 0 | 0 | 0 | 0 | 0 | 0 | 33.3 | 100 | 0 | 0 | 100 | 0/4 | 0/2 | 0/8 | 0/4 | 0/3 | 0/1 | – | MES animals protected at 0.25 h ([2]; 100 mg/kg, 0.25 h): 2/3
C[C@@H]1CC2=C(Sc3ccccc3N2)C(=O)[C@H]1C(=O)OC(C)(C)C (relative stereo) [Compound 4c, 3-Carbo-ter-butoxy-2-methyl-2,3-dihydro-1H-phenothiazin-4[10H]-one] | 0 | 0 | 0 | 0 | 0 | 0 | 33.3 | 100 | 0 | 0 | 0 | 0/4 | 0/2 | 0/8 | 0/4 | 0/4 | 0/2 | 0 | MES animals protected at 2 h ([2]; 100 mg/kg, 2 h): 1/3; MES animals protected at 6 h ([2]; 100 mg/kg, 6 h): 0/3; toxic at 2 h (neurotoxicity (rotorod); 100 mg/kg, 2 h): 1/3; toxic at 6 h (neurotoxicity (rotorod); 100 mg/kg, 6 h): 0/3
CCOC(=O)[C@@H]1C(=O)C2=C(C[C@H]1C)Nc1ccc(Br)cc1S2 (relative stereo) [Compound 4k, 7-Bromo-3-carbethoxy-2-methyl-2,3-dihydro-1H-phenothiazin-4[10H]-one] | 0 | 0 | 0 | 0 | 0 | 0 | 0 | 100 | 0 | 0 | 100 | 0/8 | 0/4 | 0/4 | 0/2 | 0/8 | 0/4 | 0 | responders at 10 mg/kg [1, 3]: 0%; responders at 10 mg/kg ([1]; 4 h, read-out: scMet 4 h): 0%; responders at 10 mg/kg ([2]; 4 h, read-out: MES 4 h): 0%; responders at 10 mg/kg ([2]; 0.5 h, 30 min, read-out: MES 30 min): 0%; Tox 30 min (neurotoxicity (rotorod); 10 mg/kg): 0/4; Tox 4 h (neurotoxicity (rotorod); 10 mg/kg): 0/2
C[C@@H]1CC2=C(Sc3cc(Cl)ccc3N2)C(=O)[C@H]1C(=O)OC(C)(C)C (relative stereo) [Compound 4g, 7-Chloro-3-carbo-ter-butoxy-2-methyl-2,3-dihydro-1H-phenothiazin-4[10H]-one] | 0 | 0 | 0 | 0 | 0 | 0 | 33.3 | 100 | 0 | 0 | 0 | 0/4 | 0/2 | 0/8 | 0/4 | 0/4 | 0/2 | 0 | –
